Each block holds one compound with its values, some of them ahead of it.
Legend:
Assay type in all cases: cell-based
CALU1 = assay: Lung cancer cell line viability, single agent or 1:1 combination (CTG 120h), Example 7; conditions: Homo sapiens, Calu-1, 120 h, CALU1, CTG 120 h
Description: (§1) Cell lines were cultured in the media described above at 37° C. in a humidified atmosphere containing 5% CO2. Cells were seeded in 96 well clear bottom plates (96 well clear-bottom, white, Corning reference 3903) and exposed to the mAbs, mAbs mixture, ADCs or ADCs mixture as single agents or in 1:1 combination with Paclitaxel. When in 1:1 combination, both the combining partner (Paclitaxel) and the mAb, mAb mixture, ADC or ADC mixture were serially diluted (9 concentrations each, triplicates). Effect on cell viability was assessed after 5 days of incubation at 37° C./5% CO2 by quantification of cellular ATP levels using CellTiter-Glo reagent (Promega Ref: G7571) at 75 μL reagent/well. All the conditions were tested in triplicates. Luminescence was quantified on a multipurpose plate reader. IC50s were calculated using standard four-parametric curve fitting. IC50 is defined as the compound concentration at which the CTG signal is reduced to 50% of that measured for the control. Two independent experiments were performed (N1 and N2).

HCC366 = assay: as above; conditions: HCC366, 120 h, HCC366, CTG 120 h
Description: as §1

HCC4006 = assay: as above; conditions: Homo sapiens, HCC4006, 120 h, HCC4006, CTG 120 h
Description: as §1

HCC78 = assay: as above; conditions: Homo sapiens, HCC78, 120 h, HCC78, CTG 120 h
Description: as §1

HCC827 = assay: as above; conditions: Homo sapiens, HCC827, 120 h, HCC827, CTG 120 h
Description: as §1

LU65 = assay: as above; conditions: Homo sapiens, Lu-65, 120 h, LU65, CTG 120 h
Description: as §1

NCI-H1838 = assay: as above; conditions: Homo sapiens, NCI-H1838, 120 h, NCI-H1838, CTG 120 h
Description: as §1

NCI-H1975 = assay: as above; conditions: Homo sapiens, NCI-H1975, 120 h, NCI-H1975, CTG 120 h
Description: as §1

NCI-H441 = assay: as above; conditions: Homo sapiens, NCI-H441, 120 h, NCI-H441, CTG 120 h
Description: as §1

[1] = test system: HCC78 lung cancer cell line; assay: HCC78 viability, single agent or 1:1 combination with Paclitaxel (CTG 120h), Example 8; conditions: for effect on the viability: HCC-78, single agents, FIG. 3
Description: HCC78 lung cancer cell line was cultured in the media described above at 37° C. in a humidified atmosphere containing 5% CO2. Cells were seeded in 96 well clear bottom plates (96 well clear-bottom, white, Corning reference 3903) and exposed to the mAbs or ADCs as single agents or in 1:1 combination with Paclitaxel. When in 1:1 combination, both Paclitaxel and the mAb or ADC were serially diluted (9 concentrations each, triplicates). Effect on cell viability was assessed after 5 days of incubation at 37° C./5% CO2 by quantification of cellular ATP levels using CellTiter-Glo reagent (Promega Ref: G7571) at 75 μL reagent/well. All the conditions were tested in triplicates. Luminescence was quantified on a multipurpose plate reader. IC50s were calculated using standard four-parametric curve fitting. IC50 is defined as the compound concentration at which the CTG signal is reduced to 50% of that measured for the control. Two independent experiments were performed (N1 and N2).

AsPC-1 = assay: Pancreatic cancer cell line viability, single agent or 1:1 combination (CTG 120h), Example 10; conditions: Homo sapiens, ASPC1, 120 h, AsPC-1, CTG 120 h
Description: (§2) Cell lines were cultured in the media described above at 37° C. in a humidified atmosphere containing 5% CO2. Cells were seeded in 96 well clear bottom plates (96 well clear-bottom, white, Corning reference 3903) and exposed to the mAbs or ADCs as single agents or in 1:1 combination with Paclitaxel, Trametinib or Gemcitabine. When in 1:1 combination, both the combining partner (Paclitaxel, Trametinib or Gemcitabine) and the mAb or ADC were serially diluted (9 concentrations each, triplicates). Effect on cell viability was assessed after 5 days of incubation at 37° C./5% CO2 by quantification of cellular ATP levels using CellTiter-Glo reagent (Promega Ref: G7571) at 75 μL reagent/well. All the conditions were tested in triplicates. Luminescence was quantified on a multipurpose plate reader. IC50s were calculated using standard four-parametric curve fitting. IC50 is defined as the compound concentration at which the CTG signal is reduced to 50% of that measured for the control. Two independent experiments were performed (N1 and N2).

BxPC-3 = assay: as above; conditions: Homo sapiens, BXPC-3, 120 h, BxPC-3, CTG 120 h
Description: as §2

Hs766T = assay: as above
Description: as §2

KP-4 = assay: as above; conditions: Homo sapiens, KP-4, 120 h, KP-4, CTG 120 h
Description: as §2

Panc 10.05 = assay: as above; conditions: Homo sapiens, Panc1005, 120 h, Panc 10.05, CTG 120 h
Description: as §2

IC50 (CALU1; Mean): 14.6 nM | IC50 (CALU1; n1): 1.78 nM | IC50 (CALU1; n2): 14.6 nM | IC50 (HCC366; Mean): 29.4 nM | IC50 (HCC366; n1): 14.9 nM | IC50 (HCC366; n2): 43.8 nM | IC50 (HCC4006; Mean): 7460 nM | IC50 (HCC4006; n1): 7460 nM | IC50 (HCC4006; n2): > 10000 nM | IC50 (HCC78; Mean): 2260 nM | IC50 (HCC78; n1): 3220 nM | IC50 (HCC78; n2): 1310 nM | IC50 (HCC827; Mean): 108 nM | IC50 (HCC827; n1): 57.4 nM | IC50 (HCC827; n2): 158 nM | IC50 (LU65; Mean): > 10000 nM | IC50 (LU65; n1): 5610 nM | IC50 (LU65; n2): > 10000 nM | IC50 (NCI-H1838; Mean): 34 nM | IC50 (NCI-H1838; n1): 41.4 nM | IC50 (NCI-H1838; n2): 26.7 nM | IC50 (NCI-H1975; Mean): 9030 nM | IC50 (NCI-H1975; n1): 9030 nM | IC50 (NCI-H1975; n2): > 10000 nM | IC50 (NCI-H441; Mean): 1020 nM | IC50 (NCI-H441; n1): 1010 nM | IC50 (NCI-H441; n2): 1030 nM | IC50 (AsPC-1; mean): 244 nM | IC50 (AsPC-1; n1): 368 nM | IC50 (AsPC-1; n2): 121 nM | IC50 (BxPC-3; mean): 21800 nM | IC50 (BxPC-3; n1): 20800 nM | IC50 (BxPC-3; n2): 22800 nM | IC50 (Hs766T; mean): 1640 nM | IC50 (Hs766T; n1): 1900 nM | IC50 (Hs766T; n2): 1370 nM | IC50 (KP-4; mean): 17000 nM | IC50 (KP-4; n1): 14700 nM | IC50 (KP-4; n2): 19200 nM | IC50 (Panc 10.05; mean): 73.5 nM | IC50 (Panc 10.05; n1): 61.6 nM | IC50 (Panc 10.05; n2): 85.3 nM
Compound: Cc1c(Nc2nc3ccccc3s2)nnc2c1CCCN2c1ccc(-c2cnn(C[C@]34C[C@]5(C)C[C@](C)(C3)C[C@@](OCCNCCCO)(C5)C4)c2C)c(C(=O)O)n1 [P25, 6-[3-(1,3-benzothiazol-2-ylamino)-4-methyl-6,7-dihydro-5H-pyrido[2,3-c]pyridazin-8-yl]-3-[1-[[3-[2-(3-hydroxypropylamino)ethoxy]-5,7-dimethyl-1-adamantyl]methyl]-5-methyl-pyrazol-4-yl]pyridine-2-carboxylic acid]
effect on the viability [1]: induced a dose dependent decrease in the viability

IC50 (CALU1; Mean): 25.6 nM | IC50 (CALU1; n1): 13.7 nM | IC50 (CALU1; n2): 37.4 nM | IC50 (HCC366; Mean): 7.45 nM | IC50 (HCC366; n1): 4 nM | IC50 (HCC366; n2): 10.9 nM | IC50 (HCC4006; Mean): 4.66 nM | IC50 (HCC4006; n1): 5.9 nM | IC50 (HCC4006; n2): 3.42 nM | IC50 (HCC78; Mean): 3.4 nM | IC50 (HCC78; n1): 2.52 nM | IC50 (HCC78; n2): 4.29 nM | IC50 (HCC827; Mean): 5.27 nM | IC50 (HCC827; n1): 4.11 nM | IC50 (HCC827; n2): 6.42 nM | IC50 (LU65; Mean): 29.7 nM | IC50 (LU65; n1): 32.4 nM | IC50 (LU65; n2): 27 nM | IC50 (NCI-H1838; Mean): > 300 nM | IC50 (NCI-H1838; n1): > 300 nM | IC50 (NCI-H1838; n2): > 300 nM | IC50 (NCI-H1975; Mean): 2.53 nM | IC50 (NCI-H1975; n1): 3.34 nM | IC50 (NCI-H1975; n2): 1.72 nM | IC50 (NCI-H441; Mean): 6.48 nM | IC50 (NCI-H441; n1): 9.2 nM | IC50 (NCI-H441; n2): 3.75 nM | IC50 (AsPC-1; mean): 10.2 nM | IC50 (AsPC-1; n1): 12.4 nM | IC50 (AsPC-1; n2): 8.06 nM | IC50 (BxPC-3; mean): 0.93 nM | IC50 (BxPC-3; n1): 0.6 nM | IC50 (BxPC-3; n2): 1.25 nM | IC50 (Hs766T; mean): > 30000 nM | IC50 (Hs766T; n2): > 30000 nM | IC50 (KP-4; mean): 2.33 nM | IC50 (KP-4; n1): 0.47 nM | IC50 (KP-4; n2): 4.19 nM | IC50 (Panc 10.05; mean): 7.93 nM | IC50 (Panc 10.05; n1): 5.65 nM | IC50 (Panc 10.05; n2): 10.2 nM
Compound: CC(=O)O[C@H]1C(=O)[C@@]2(C)[C@H]([C@H](OC(=O)c3ccccc3)[C@]3(O)C[C@H](OC(=O)[C@H](O)[C@@H](NC(=O)c4ccccc4)c4ccccc4)C(C)=C1C3(C)C)[C@]1(OC(C)=O)CO[C@@H]1C[C@@H]2O [Paclitaxel, paclitaxel]
Maximal effect on the viability (viability decrease) ([1]; HCC-78, FIG. 3): 80% | effect on the viability [1]: induced a dose dependent decrease in the viability
